Patent US4789587A, “(1,3-dioxolan-2-yl-methyl)-1H-imidazoles as bactericidal and/or fungicidal agents” (IRE-Celltarg, S.A., priority 1986, dated 1988)
Converted amounts (≈) assume the structure as drawn.

Assays:
[1] = test system: Staphylococcus aureus ATCC 25923; assay: minimum inhibiting concentration, microtitration in liquid medium, S. aureus; format: cell-based; conditions: ATCC25923, Mueller-Hinton, overnight, inoculum 10^5 to 10^6 organisms/ml, read-out: MIC S. aureus
Protocol: (§1) The activity of the new derivatives according to the invention was tested in vitro by determining the minimum inhibiting concentration (MIC) of the molecules and their fungicidal (minimum fungicidal concentration MFC) or bactericidal (minimum bactericidal concentration MBC) activity. MFC and MBC are defined as the minimum dose which kills 99.9% of the organisms contained in the inoculum. Two species of yeasts pathogenic to man were used: Candida albicans ATCCe 10231 and Candida tropicalis ATCC 13803. Two species of bacteria were included in the screening: Staphylococcus aureus ATCC 25923 and Salmonella typhimurium LT2, strain Demerec. The MIC is determined after culturing overnight in a liquid medium, by the microtitration method in dishes containing 96 wells over a concentration range of 100 μM to 0.0008 μM. The inoculum contains 10^5 to 10^6 organisms/ml. The culture media consist on the one hand of RPMI to which 20% of foetal calf serum (inactivated for one hour at 56°) has been added in order to determine the fungistatic activity and Mueller-Hinton agar in order to determine the bacteriostatic power of the newly synthesized molecules on the other. The MFC and MBC for each of these molecules are obtained by subculturing a sample containing 10^3 organisms from each well giving negative results for the growth of the organisms, in a solid medium consisting of YM agar (yeasts) or Mueller-Hinton agar (bacteria) overnight at 37°.

[2] = test system: Candida albicans ATCCe 10231; assay: minimum fungicidal concentration, subculture on YM agar, C. albicans; format: cell-based; conditions: ATCCE10231, minimum dose which kills 99.9% of the organisms, YM agar, overnight at 37°, read-out: MFC C. albicans
Protocol: as §1

[3] = test system: Candida tropicalis ATCC 13803; assay: minimum inhibiting concentration, microtitration in liquid medium, C. tropicalis; format: cell-based; conditions: ATCC13803, RPMI + 20% foetal calf serum, overnight, inoculum 10^5 to 10^6 organisms/ml
Protocol: as §1

[4] = test system: Staphylococcus aureus ATCC 25923; assay: minimum bactericidal concentration, subculture on Mueller-Hinton agar, S. aureus; format: cell-based; conditions: ATCC25923, minimum dose which kills 99.9% of the organisms (MBC), overnight at 37°, read-out: MFC S. aureus
Protocol: as §1

[5] = test system: Candida tropicalis ATCC 13803; assay: minimum fungicidal concentration, subculture on YM agar, C. tropicalis; format: cell-based; conditions: ATCC13803, minimum dose which kills 99.9% of the organisms, YM agar, overnight at 37°, read-out: MFC C. tropicalis
Protocol: as §1

[6] = test system: Candida albicans ATCCe 10231; assay: minimum inhibiting concentration, microtitration in liquid medium, C. albicans; format: cell-based; conditions: ATCCE10231, RPMI + 20% foetal calf serum, overnight, inoculum 10^5 to 10^6 organisms/ml
Protocol: as §1

[7] = test system: Leydig tumor cells from mice (I-10, ATCC No. CCL83); assay: in vitro synthesis of steroids: 20α-hydroxy-4-pregnen-3-one secretion by Leydig tumor cells induced by cAMP; format: cell-based; conditions: 9.4×10^-7 M; for 20α-OH-4-pregnen-3-one (1): dibutyryl-cAMP 1×10^-4 M, 3 hours incubation with compound, control 1744, basal 785; for activity at 0.94 µM: Mus musculus, Leydig, relative to cells induced by cAMP in the absence of inhibitor, read-out: 20α-OH-4-pregnen-3-one (2) % enzyme activity relative to control
Source text: (§2) Ketoconazole and its derivatives reduce the plasma levels of testosterone by inhibiting certain enzymes involved in its biogenesis. Progesterone is a key intermediate in the biogenesis of steroid hormones as it leads especially to estradiol in the ovary and to testosterone in the testicles. The inhibiting power of ketoconazole and its derivatives on the enzyme chain for the biogenesis of steroid hormones may be assessed by measuring the conversion of cholesterol into progesterone. A method of determination which enables this property to be quantified is described below.
(§3) Leydig tumor cells from mice (I-10, ATCC No. CCL83) were grown in a HAM's F10 medium to which 15% of horse serum and 2.5% of foetal calf serum were added. These cells have the property of secreting progesterone and a product of reduction of the latter which is no longer metabolized, 20α-hydroxy-4-pregnen-3-one. This secretion of steroids is induced by the addition of cAMP in the form of its dibutyryl ester (N^6, O^2' -dibutyryladenosine 3', 5'-cyclic monophosphate sodium salt monohydrate (Sigma)). The cells are subcultured in 25 cm^2 falcon dishes and maintained under CO2 (10%). When these become confluent (±1 mg/ml proteins) the medium is replaced with fresh medium containing dibutyryl-cAMP (1×10^-4 M). After incubating for 1 hour with the cAMP, the ketoconazole or its derivatives are added (9.4×10^-7 M) to the culture medium. After incubating for a further period of 3 hours, the supernatants are collected and will be used for the analysis of steroids by HPLC. The cells are rinsed with PBS (phosphate buffered saline: NaCl 0.15M, KCl 2.7 mM, Na2 HPO4 -KH2 PO4 3 mM pH 7.4) and after treating with DOC (deoxycholic acid), the determination of proteins is carried out by the Lowry method.
(§4) For the determination of steroids, 2 ml of the culture medium are brought into contact with 5 ml of ether. The tubes are vortexed for 2 minutes. After freezing the aqueous phases in an isopropanol/solid carbon dioxide bath, the ether phase is collected and the ether is evaporated off under a stream of nitrogen at 30° C. The dry extract is then diluted in 150 μl of water and 150 μl of acetonitrile and centrifuged at 13,000 rpm for 10 minutes. 30 μl of the supernatant are injected into HPLC on a 4 mm diameter, 30 cm long μBondapack C18 column (WATERS). The mobile phase consists of 38% of water, 31% acetonitrile and 31% methanol. The flowrate is 2 ml/min and readings are taken at 245 nm.

[8] = test system: Salmonella typhimurium LT2, strain Demerec; assay: minimum inhibiting concentration, microtitration in liquid medium, S. typhimurium; format: cell-based; conditions: Salmonella enterica, Mueller-Hinton, overnight, inoculum 10^5 to 10^6 organisms/ml, read-out: MIC S. typhimurium
Protocol: as §1

[9] = resorption: plasma concentration in rats after gastric administration; format: in vivo; conditions: rat, po, 1000 umol/kg, 100 μmols/0.5 ml of DMSO per 100 g of body weight, Candida tropicalis inhibition zones vs ketoconazole standard curve, read-out: plasma concentration of the antifungal product
Protocol: 100 μmols/0.5 ml of DMSO per 100 g of body weight of either ketoconazole (reference product) or oleylketoconazole (compound No. 7) are administered to rats by the gastric route. The animals are sacrificed with CO2, 1 h after the administration. Blood is sampled by cardiac puncture and centrifuged for 15 minutes at 2000 rpm to obtain the plasma.
A series of dilutions of the plasma samples are prepared in a 0.9% NaCl solution, diluting twice each time. 10 μl are sampled from each dilution and deposited on Whatman paper discs. The discs are placed in Petri dishes containing 15 ml of casitone agar covered with a layer containing 3 ml of a less dense agar mixed with 0.1 ml of an overnight culture of Candida tropicalis. After incubating overnight the growth inhibition zones around the disks are measured and compared with a standard curve prepared with ketoconazole under the same conditions.

[10] = test system: Leydig tumor cells from mice (I-10, ATCC No. CCL83); assay: in vitro synthesis of steroids: progesterone secretion by Leydig tumor cells induced by cAMP; format: cell-based; conditions: 9.4×10^-7 M; for Progesterone (1): dibutyryl-cAMP 1×10^-4 M, 3 hours incubation with compound, control 3546, basal 554; for progesterone secretion, % of cAMP-induced control at 0.94 µM: Mus musculus, Leydig, relative to cells induced by cAMP in the absence of inhibitor, read-out: Progesterone (2) % enzyme activity relative to control
Source text: as §2, §3, §4

O=C(O)CCC(=O)N1CCN(c2ccc(OCC3COC(Cn4ccnc4)(c4ccc(Cl)cc4Cl)O3)cc2)CC1 (stereo not drawn) [No. 4, Cis-4-[A]-1(succinyl)piperazine]
MIC [1]: 50.8 µM (≈ 29.9 µg/mL) | MFC [2]: 25 µM (≈ 14.7 µg/mL) | MIC [3]: 15.2 µM | MBC [4]: > 100 µM | MFC [5]: 50 µM (≈ 29.5 µg/mL) | MIC [6]: 19.8 µM

O=C(O)CCC(=O)NCC(=O)N1CCN(c2ccc(OCC3COC(Cn4ccnc4)(c4ccc(Cl)cc4Cl)O3)cc2)CC1 (stereo not drawn) [No. 5, Cis-4-[A]-1-(N-succinylglycyl)piperazine]
MIC [1]: 50 µM (≈ 32.3 µg/mL) | MIC [3]: 25 µM | MIC [6]: 25 µM

CC(=O)NCC(=O)N1CCN(c2ccc(OCC3COC(Cn4ccnc4)(c4ccc(Cl)cc4Cl)O3)cc2)CC1 (stereo not drawn) [No. 6, Cis-4-[A]-1-(N-acetylglycyl)piperazine]
MFC [2]: 6.25 µM (≈ 3.68 µg/mL) | MIC [3]: 0.78 µM | MFC [5]: 12.5 µM (≈ 7.36 µg/mL) | MIC [6]: 3.13 µM

CCCCCCCCC=CCCCCCCCC(=O)N1CCN(c2ccc(OCC3COC(Cn4ccnc4)(c4ccc(Cl)cc4Cl)O3)cc2)CC1 (stereo not shown) [No. 7]
20α-OH-4-pregnen-3-one (1) [7]: 1497 ng of steroids/mg of cell prot | activity at 0.94 µM [7]: 86% | MIC [1]: > 100 µM | MFC [2]: 125 µM (≈ 94.2 µg/mL) | MIC [8]: > 100 µM | MIC [3]: 8.78 µM | MBC [4]: > 100 µM | MFC [5]: 250 µM (≈ 188 µg/mL) | MIC [6]: 10.2 µM | concentration at 1 h [9]: 57.3 µM | Progesterone (1) [10]: 2754 ng of steroids/mg of cell prot | progesterone secretion, % of cAMP-induced control at 0.94 µM [10]: 78%

CCCCCCCCC=CCCCCCCCC(=O)NCC(=O)N1CCN(c2ccc(OCC3COC(Cn4ccnc4)(c4ccc(Cl)cc4Cl)O3)cc2)CC1 (stereo not drawn) [No. 8, Cis-4-[A]-1-(N-oleylglycyl)piperazine]
MFC [2]: 62.5 µM (≈ 50.7 µg/mL) | MIC [3]: 53.1 µM | MFC [5]: > 100 µM | MIC [6]: 31.2 µM

CC(C)CC(N)C(=O)N1CCN(c2ccc(OCC3COC(Cn4ccnc4)(c4ccc(Cl)cc4Cl)O3)cc2)CC1 (stereo not drawn) [No. 9, Cis-4-[A]-1-(leucyl)piperazine]
20α-OH-4-pregnen-3-one (1) [7]: 1725 ng of steroids/mg of cell prot | activity at 0.94 µM [7]: 99% | Progesterone (1) [10]: 2231 ng of steroids/mg of cell prot | progesterone secretion, % of cAMP-induced control at 0.94 µM [10]: 63%

NC(Cc1ccccc1)C(=O)N1CCN(c2ccc(OCC3COC(Cn4ccnc4)(c4ccc(Cl)cc4Cl)O3)cc2)CC1 (stereo not drawn) [No. 10, Cis-4-[A]-1-(phenylalanyl)piperazine]
20α-OH-4-pregnen-3-one (1) [7]: 605 ng of steroids/mg of cell prot | activity at 0.94 µM [7]: 35% | Progesterone (1) [10]: 323 ng of steroids/mg of cell prot | progesterone secretion, % of cAMP-induced control at 0.94 µM [10]: 9%
